US20250313533A1, “QUINOLINE CARBOXYLIC ACID ESTER COMPOUND AND PREPARATION METHOD AND USE THEREOF” (priority 2019, published 2025)

Columns and labels:
[1] = tested on: pathogenic bacteria causing stem rot in sweet potatoes; test: In vitro bactericidal activity, stem rot in sweet potatoes; format: cell-based, dikia; details: read-out: inhibitory rate; for inhibition at 1 ppm: dosage 1 ppm; for inhibition at 5 ppm: dosage 5 ppm
[2] = tested on: pathogenic bacteria causing bacterial wilt in tobacco; test: whole plant or invertebrate; format: cell-based, ralstonia; details: read-out: inhibitory rate
[3] = tested on: indoor potted cucumber seedlings; test: Effect of improving growth and development of crops; format: in vivo; parameters: Rate of growth rate increase (%): concentration or dose not given beside the values; details: versus blank control; for Rate of chlorophyll content increase (%) / Rate of leaf area increase (%): 14 days after application; for Rate of growth rate increase (%): plant height 14 days after application; for Rate of leaf area increase (%): second leaf
Outline: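 Plant height and second-leaf length/width were measured before application and 14 days after; growth rate and its percent increase, leaf area and leaf-area increase were calculated from these. Chlorophyll was read with a SPAD chlorophyll meter and its increase rate derived.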

[4] = tested on: pathogenic bacteria causing fruit blotch in watermelons; test: In vitro bactericidal activity, fruit blotch in watermelons; format: cell-based, acidovorax; details: read-out: inhibitory rate; for inhibition at 1 ppm: dosage 1 ppm; for inhibition at 5 ppm: dosage 5 ppm
[5] = tested on: cucumber seedlings; test: Safety for plant growth after application; format: in vivo; details: dosage 200 ppm
Outline: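 Using pot-grown cucumber seedlings indoors, we recorded plant height growth rate together with chlorophyll content and leaf area following compound application.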

[6] = tested on: pathogenic bacteria causing bacterial angular leaf spot in cucumbers; test: In vitro bactericidal activity, bacterial angular leaf spot in cucumbers; format: cell-based, pseudomonas; details: read-out: inhibitory rate; for inhibition at 1 ppm: dosage 1 ppm; for inhibition at 5 ppm: dosage 5 ppm
[7] = tested on: stem rot in sweet potatoes; test: whole plant or invertebrate; details: read-out: efficacy against stem rot in sweet potatoes
[8] = tested on: pathogenic bacteria causing black rot in Chinese cabbages; test: In vitro bactericidal activity, black rot in Chinese cabbages; format: cell-based, xanthomonas; details: Xanthomonas, read-out: inhibitory rate; for inhibition at 1 ppm: dosage 1 ppm; for inhibition at 5 ppm: dosage 5 ppm
[9] = tested on: pathogenic bacteria causing bacterial blight in rice; test: whole plant or invertebrate; format: cell-based, xanthomonas; details: read-out: inhibitory rate
[10] = tested on: soft rot in Chinese cabbages; test: whole plant or invertebrate; details: 48 h, read-out: efficacy against soft rot in Chinese cabbages
[11] = tested on: bacterial blight in rice; test: whole plant or invertebrate; details: Oryza sativa, read-out: efficacy against bacterial blight in rice
[12] = tested on: black shank in potatoes; test: Living crops in vivo protective activity, potatoes (root irrigation); details: Solanum tuberosum, read-out: efficacy against black shank in potatoes; for pest or weed control at 5 ppm: dosage 5 ppm; for pest or weed control at 10 ppm: dosage 10 ppm
Protocol: Root irrigation was carried out on the potatoes for tests according to the designed concentration of the agents. The dosage for each plant was 200 mL and was kept consistent (also for the control). The black shank bacteria were inoculated on the second day after the application. The results were investigated according to the disease condition.

[13] = tested on: pathogenic bacteria causing fire blight in pears; test: In vitro bactericidal activity, fire blight in pears; format: cell-based, erwinia; details: Erwinia, read-out: inhibitory rate; for inhibition at 1 ppm: dosage 1 ppm; for inhibition at 5 ppm: dosage 5 ppm
[14] = tested on: pathogenic bacteria causing black shank in potatoes; test: In vitro bactericidal activity, black shank in potatoes; format: cell-based; details: read-out: inhibitory rate; for inhibition at 1 ppm: dosage 1 ppm; for inhibition at 5 ppm: dosage 5 ppm
[15] = tested on: bacterial wilt in tobacco; test: whole plant or invertebrate; details: Nicotiana tabacum, read-out: efficacy against bacterial wilt in tobacco
[16] = tested on: pathogenic bacteria causing bacterial wilt in cassava; test: organism not typed; format: cell-based; details: read-out: inhibitory rate
[17] = tested on: fruit blotch in watermelons; test: whole plant or invertebrate; details: read-out: efficacy against fruit blotch in watermelons

Compound | inhibition at 1 ppm [1] [%] | inhibition at 5 ppm [1] [%] | inhibition at 1 ppm [2] [%] | inhibition at 5 ppm [2] [%] | Rate of chlorophyll content increase (%) [3] [%] | Rate of growth rate increase (%) [3] [%] | Rate of leaf area increase (%) [3] [%] | inhibition at 1 ppm [4] [%] | inhibition at 5 ppm [4] [%] | safety for plant growth (discoloration, necrosis, wilt, malformation) [5] | inhibition at 1 ppm [6] [%] | inhibition at 5 ppm [6] [%] | pest or weed control at 5 ppm [7] [%] | pest or weed control at 10 ppm [7] [%] | inhibition at 1 ppm [8] [%] | inhibition at 5 ppm [8] [%] | inhibition at 1 ppm [9] [%] | inhibition at 5 ppm [9] [%] | pest or weed control at 5 ppm [10] [%] | pest or weed control at 10 ppm [10] [%] | also measured
COCCOC(=O)c1cn(C2CC2)c2cc(OC3CCCC3)c(F)cc2c1=O [Compound 296] | ≥ 90 | ≥ 90 | ≥ 90 | ≥ 90 | 16 | 12 | 11 | ≥ 90 | ≥ 90 | safe for plant growth | ≥ 90 | ≥ 90 | ≥ 90 | ≥ 90 | ≥ 90 | ≥ 90 | ≥ 90 | ≥ 90 | ≥ 90 | ≥ 90 | pest or weed control at 5 ppm [11]: ≥ 90%; pest or weed control at 10 ppm [11]: ≥ 90%; pest or weed control at 5 ppm [12]: ≥ 90%; pest or weed control at 10 ppm [12]: ≥ 90%; inhibition at 1 ppm [13]: ≥ 90%; inhibition at 5 ppm [13]: ≥ 90%; inhibition at 1 ppm [14]: ≥ 90%; inhibition at 5 ppm [14]: ≥ 90%; pest or weed control at 5 ppm [15]: ≥ 90%; pest or weed control at 10 ppm [15]: ≥ 90%; inhibition at 1 ppm [16]: ≥ 90%; inhibition at 5 ppm [16]: ≥ 90%; pest or weed control at 5 ppm [17]: ≥ 90%; pest or weed control at 10 ppm [17]: ≥ 90%
COCCOC(=O)c1cn(C2CC2)c2cc(N3CCCCC3)c(F)cc2c1=O [Compound 432] | ≥ 90 | ≥ 90 | ≥ 90 | ≥ 90 | 16 | 12 | 16 | ≥ 90 | ≥ 90 | safe for plant growth | ≥ 90 | ≥ 90 | ≥ 90 | ≥ 90 | ≥ 90 | ≥ 90 | ≥ 90 | ≥ 90 | ≥ 90 | ≥ 90 | pest or weed control at 5 ppm [11]: ≥ 90%; pest or weed control at 10 ppm [11]: ≥ 90%; pest or weed control at 5 ppm [12]: ≥ 90%; pest or weed control at 10 ppm [12]: ≥ 90%; inhibition at 1 ppm [13]: ≥ 90%; inhibition at 5 ppm [13]: ≥ 90%; inhibition at 1 ppm [14]: ≥ 90%; inhibition at 5 ppm [14]: ≥ 90%; pest or weed control at 5 ppm [15]: ≥ 90%; pest or weed control at 10 ppm [15]: ≥ 90%; inhibition at 1 ppm [16]: ≥ 90%; inhibition at 5 ppm [16]: ≥ 90%; pest or weed control at 5 ppm [17]: ≥ 90%; pest or weed control at 10 ppm [17]: ≥ 90%
O=C(OCCO)c1cn(C2CC2)c2cc(Cl)c(F)cc2c1=O [Compound 151, 2-hydroxyethyl-7-chloro-1-cyclopropyl-6-fluoro-4-oxo-1,4-dihydroquinoline-3-carboxylate] | ≥ 90 | ≥ 90 | ≥ 90 | ≥ 90 | 15 | 12 | 16 | ≥ 90 | ≥ 90 | safe for plant growth | ≥ 90 | ≥ 90 | ≥ 90 | ≥ 90 | ≥ 90 | ≥ 90 | ≥ 90 | ≥ 90 | ≥ 90 | ≥ 90 | pest or weed control at 5 ppm [11]: ≥ 90%; pest or weed control at 10 ppm [11]: ≥ 90%; pest or weed control at 5 ppm [12]: ≥ 90%; pest or weed control at 10 ppm [12]: ≥ 90%; inhibition at 1 ppm [13]: ≥ 90%; inhibition at 5 ppm [13]: ≥ 90%; inhibition at 1 ppm [14]: ≥ 90%; inhibition at 5 ppm [14]: ≥ 90%; pest or weed control at 5 ppm [15]: ≥ 90%; pest or weed control at 10 ppm [15]: ≥ 90%; inhibition at 1 ppm [16]: ≥ 90%; inhibition at 5 ppm [16]: ≥ 90%; pest or weed control at 5 ppm [17]: ≥ 90%; pest or weed control at 10 ppm [17]: ≥ 90%
COCCOC(=O)c1cn(C2CC2)c2cc(N3CCOCC3)c(F)cc2c1=O [Compound 426, 2-methoxyethyl 1-cyclopropyl-6-fluoro-7-morpholinyl-4-oxo-1,4-dihydroquinoline-3-carboxylate] | ≥ 90 | ≥ 90 | ≥ 90 | ≥ 90 | 10 | 9 | 11 | ≥ 90 | ≥ 90 | safe for plant growth | ≥ 90 | ≥ 90 | ≥ 90 | ≥ 90 | ≥ 90 | ≥ 90 | ≥ 90 | ≥ 90 | ≥ 90 | ≥ 90 | pest or weed control at 5 ppm [11]: ≥ 90%; pest or weed control at 10 ppm [11]: ≥ 90%; pest or weed control at 5 ppm [12]: ≥ 90%; pest or weed control at 10 ppm [12]: ≥ 90%; inhibition at 1 ppm [13]: ≥ 90%; inhibition at 5 ppm [13]: ≥ 90%; inhibition at 1 ppm [14]: ≥ 90%; inhibition at 5 ppm [14]: ≥ 90%; pest or weed control at 5 ppm [15]: ≥ 90%; pest or weed control at 10 ppm [15]: ≥ 90%; inhibition at 1 ppm [16]: ≥ 90%; inhibition at 5 ppm [16]: ≥ 90%; pest or weed control at 5 ppm [17]: ≥ 90%; pest or weed control at 10 ppm [17]: ≥ 90%
